Measurements reported in ChEMBL document CHEMBL4411258, “Novel natural compounds from endophytic fungi with anticancer activity” (Eur J Med Chem, 2018).
pIC50: −log10 of the molar value. ≈ marks a conversion by molar mass, not a printed value.

What was measured:
L5178Y = test: Cytotoxicity against mouse L5178Y cells by MTT assay; type: functional, cell-based
MCF7 [1] = test: Cytotoxicity against human MCF7 cells after 48 hrs by sulforhodamine B assay; type: functional, cell-based; conditions: Homo sapiens, MCF7, 48 h
HepG2 [2] = test: Cytotoxicity against human HepG2 cells after 48 hrs by sulforhodamine B assay; type: functional, cell-based; conditions: Homo sapiens, HepG2, 48 h
HepG2 [3] = test: Cytotoxicity against human HepG2 cells by MTT assay; type: functional, cell-based
MCF7 [4] = test: Cytotoxicity against human MCF7 cells by MTT assay; type: functional, cell-based
SH-SY5Y [5] = test: Cytotoxicity against human SH-SY5Y cells by MTT assay; type: functional, cell-based
MCF7 [6] = test: Cytotoxicity against human MCF7 cells after 48 hrs by MTT assay; type: functional, cell-based; conditions: Homo sapiens, MCF7, 48 h; read-out: IC50
PC-3 = test: Cytotoxicity against human PC3 cells after 48 hrs by MTT assay; type: functional, cell-based; conditions: PC-3, 48 h
L02 = test: Cytotoxicity against human L02 cells by MTS assay; type: cell-based
Raji = test: Cytotoxicity against human Raji cells after 72 hrs by MTT assay; type: functional, cell-based
HepG2 [7] = test: Cytotoxicity against human HepG2 cells after 72 hrs by MTT assay; type: functional, cell-based; conditions: HepG2, 72 h
HL-60 = test: Cytotoxicity against human HL60 cells after 72 hrs by MTT assay; type: functional, cell-based; conditions: HL-60, 72 h
MCF7 [8] = test: Cytotoxicity against human MCF7 cells after 72 hrs by MTT assay; type: functional, cell-based; conditions: MCF7, 72 h
A549 [9] = test: Cytotoxicity against human A549 cells after 72 hrs by MTT assay; type: functional, cell-based; conditions: A549, 72 h
[10] = Cytotoxicity against human KATO III cells after 72 hrs by MTT assay; type: functional, cell-based
A549 [11] = test: Cytotoxicity against human A549 cells by MTT assay; type: functional, cell-based
SH-SY5Y [12] = test: Cytotoxicity against human SH-SY5Y cells after 48 hrs by MTT assay; type: functional, cell-based
NB-4 = test: Cytotoxicity against human NB4 cells after 48 hrs by MTT assay; type: functional, cell-based; conditions: NB-4, 48 h
A549 [13] = test: Cytotoxicity against human A549 cells after 48 hrs by MTT assay; type: functional, cell-based; conditions: Homo sapiens, A549, 48 h; read-out: IC50

With `COc1cc(O)c2c(c1)C(=O)[C@@H]1[C@H](C[C@@H](O)[C@@](C)(O)[C@@H]1O)C2=O` the pIC50 (L5178Y) was 5.47.
`Cc1cc(O)c(C(=O)c2c(C(=O)O)cc(O)c(O)c2O)c(O)c1` gave a pIC50 (MCF7 [1]) of 4.15 and a pIC50 (HepG2 [2]) of 4.22.
For `COc1cc(O)c2c(c1)C=C([C@H](O)[C@H](O)C(Cl)Cl)OC2O` (some centres undefined), the IC50 (HepG2 [3]) was 39.6 µg/mL and the IC50 (MCF7 [4]) was 17.8 µg/mL.
Compound `COc1ccc2c(c1CC=C(C)C)C=C(C)OC2` has a pIC50 (HepG2 [3]) of 5.09 and a pIC50 (SH-SY5Y [5]) of 5.17.
Work on `CS[C@@]1(CO)C(=O)N(C)[C@@](Cc2cn([C@@]34C[C@@]5(SC)C(=O)N(C)[C@](CO)(SC)C(=O)N5[C@]3(C)Nc3ccccc34)c3ccccc23)(SC)C(=O)N1C` yielded an IC50 (MCF7 [6]) of 8.3 µg/mL.
In the case of `COc1ccc2c(c1)N(C(=O)C=C(C)C)C1C2[C@H](O)[C@@]2(O)C(=O)N3CCC[C@H]3C(=O)N2[C@H]1CC(C)(C)O` (some centres undefined), the pIC50 (PC-3) was 4.51.
With `COc1cc2c(c3c1OC(C)(C)CC3=O)C[C@@H](C)OC2=O` the pIC50 (HepG2 [3]) was 5.40 and the pIC50 (L02) was 5.42.
`CCC(=O)Cc1c(OC)cc(=O)oc1C` gave an IC50 (Raji) of 1 to 26.8 µg/mL (≈ 4.76 to 127 µM), an IC50 (HepG2 [7]) of 1 to 26.8 µg/mL (≈ 4.76 to 127 µM) and an IC50 (HL-60) of 1 to 26.8 µg/mL (≈ 4.76 to 127 µM). For the same compound, the IC50 (MCF7 [8]) was 1 to 26.8 µg/mL and the IC50 (A549 [9]) was 1 to 26.8 µg/mL (≈ 4.76 to 127 µM).
For `COC(=O)[C@]1(Cc2ccc(O)c(CC=C(C)C)c2)OC(=O)C(O)=C1c1ccc(OC)cc1`, the pIC50 (HepG2 [3]) was over 5.00, the pIC50 (SH-SY5Y [5]) was over 5.00 and the pIC50 (L02) was over 5.00.
With `COc1cc(=O)oc(CO)c1[C@H](O)CO` the IC50 (Raji) was 1 to 26.8 µg/mL (≈ 4.63 to 124 µM), the IC50 (HepG2 [7]) was 1 to 26.8 µg/mL (≈ 4.63 to 124 µM) and the IC50 (HL-60) was 1 to 26.8 µg/mL (≈ 4.63 to 124 µM). For the same compound, the IC50 (MCF7 [8]) was 1 to 26.8 µg/mL and the IC50 (A549 [9]) was 1 to 26.8 µg/mL (≈ 4.63 to 124 µM).
Compound `C[C@H]1[C@@H](O)CCC(C)(C)[C@@]12CC=C(C(=O)O)CC2` has a pIC50 [10] of 4.60.
With `COc1cc(O)c2c(c1)C(=O)C1=C(C2=O)[C@H](O)[C@@H](O)[C@@](C)(O)C1` the pIC50 (L5178Y) was 5.03.
Work on `COc1cc(C)c2c(c1)oc(=O)c1c(O)cc(O[C@@H]3O[C@H](CO)[C@H](O)[C@H](O)[C@H]3O)cc12` yielded an IC50 (L02) of 7.2 µg/mL.
`C[C@H]1C(=O)N2c3ccccc3[C@@]3(O)C[C@H](n4cnc5ccccc5c4=O)C(=O)N1[C@@H]23` gave a pIC50 (PC-3) of 4.49.
In the case of `COc1ccc(C(CO)C(O)CO)c2oc3c(O)c(O)cc(O)c3c(=O)c12` (centres undefined), the pIC50 (SH-SY5Y [5]) was 5.38.
`COC(=O)[C@@H](C[C@@H](OC)c1c(OC)cc(O)c2c(=O)cc(C)oc12)OC` gave a pIC50 [10] of 4.67.
With `CC(C)[C@@H]1CC[C@](C)(O)C2=C1C(=O)[C@](C)(O)C[C@@H]2O` the pIC50 (A549 [11]) was 6.70 and the pIC50 (MCF7 [4]) was 5.23.
Work on `COc1cc(O)c2c(=O)cc(C)oc2c1[C@@H](C[C@@H](OC)C(=O)O)OC` yielded a pIC50 [10] of 4.77.
`COc1cc(O)c2c(c1-c1c(OC)cc(O)c3c1C(=O)C1=C(C3=O)[C@H](O)[C@@H](OC(C)=O)[C@@](C)(O)[C@@H]1O)C(=O)C1=C(C2=O)[C@H](O)[C@@H](O)[C@@](C)(O)[C@@H]1O` showed a pIC50 (L5178Y) of 4.98.
In the case of `C[C@@H]1CC2=C(CO1)C(=O)[C@@](C)(O)[C@@H](O)C2`, the pIC50 (A549 [11]) was 4.38 and the pIC50 (MCF7 [4]) was 5.60.
For `COC(=O)CCCN1C(=O)[C@]23O[C@]4(O)[C@@H](O)C(=O)N5C(C)(C)[C@H](Cc6cccc1c62)[C@H]3[C@@]54O`, the pIC50 (PC-3) was over 5.00, the pIC50 (MCF7 [6]) was over 5.00 and the pIC50 (SH-SY5Y [12]) was over 5.00. The pIC50 (NB-4) was over 5.00.
`COc1cc(O)c2c(=O)cc(C)oc2c1[C@H](C[C@@H](OC)C(=O)O)OC` showed a pIC50 (MCF7 [8]) of 4.75 and a pIC50 [10] of 4.80.
With `COc1ccc(CCCO)c2cc(CC(C)=O)oc(=O)c12` the pIC50 (PC-3) was 5.06 to 5.55, the pIC50 (MCF7 [6]) was 5.06 to 5.55 and the pIC50 (A549 [13]) was 5.06 to 5.55. For the same compound, the pIC50 (SH-SY5Y [12]) was 5.06 to 5.55 and the pIC50 (NB-4) was 5.06 to 5.55.
Work on `CC(C)=CCc1cc2c3c(c1)N(C)C(=O)[C@]31O[C@]3(O)[C@@H](O)C(=O)N4C(C)(C)[C@H](C2)[C@H]1[C@@]43O` yielded a pIC50 (PC-3) of 5.38 to 5.92, a pIC50 (MCF7 [6]) of 5.38 to 5.92 and a pIC50 (A549 [13]) of 5.38 to 5.92. It also gave a pIC50 (SH-SY5Y [12]) of 5.38 to 5.92 and a pIC50 (NB-4) of 5.38 to 5.92.
In the case of `COC(=O)[C@]1(Cc2ccc(O)c(CC=C(C)C)c2)OC(=O)C(O)=C1c1ccccc1`, the pIC50 (HepG2 [3]) was over 5.00, the pIC50 (SH-SY5Y [5]) was over 5.00 and the pIC50 (L02) was over 5.00.
In the case of `C/C(=C\Cc1c(O)ccc2c1C=C(CO)OC2)CO`, the pIC50 (PC-3) was 5.06 to 5.55, the pIC50 (MCF7 [6]) was 5.06 to 5.55 and the pIC50 (A549 [13]) was 5.06 to 5.55. The pIC50 (SH-SY5Y [12]) was 5.06 to 5.55 and the pIC50 (NB-4) was 5.06 to 5.55.
`COc1c(O)cc2c(c1CC=C(C)C)C=C(C)OC2` gave a pIC50 (A549 [11]) of 5.03 and a pIC50 (HepG2 [3]) of 5.06.
Work on `COC(=O)[C@]1(Cc2ccc(OC)c(CC=C(C)C)c2O)OC(=O)C(O)=C1c1ccc(O)cc1` yielded a pIC50 (HepG2 [3]) of 5.32 and a pIC50 (L02) of 5.41.
